{"source": "patent US20230226040A1", "about": "“COMBINATION THERAPY COMPRISING AN FGFR INHIBITOR AND A KRAS INHIBITOR” (Incyte Corporation, priority 2021, published 2023)", "key": {"[1]": {"test_system": "LU99 lung cancer xenograft", "assay": "LU99 xenograft model, tumor growth inhibition", "format": "in vivo", "settings": "NCr nude mice; AMG510 20 mg/kg, pemigatinib 0.3 mg/kg, alone or combined; oral QD, 30 days; last day of treatment", "procedure": "The in vivo effect of combining the FGFR1 inhibitor pemigatinib plus the KRAS G12C inhibitor AMG510 was assessed in the LU99 lung cancer model (JCRB0080, JCRB) xenograft model (FIG. 3) in 6 to 8 week old female NCr nude mice (Taconic). Pemigatinib and AMG510 were suspended in 5% N,N-dimethyl acetamide (DMAC)+50 mM Citrate buffer (pH 3.0) in 0.5% methyl cellulose for oral administration. Briefly, mice were inoculated in the left flank with 1×10^7 LU99 cells re-suspended in a PBS and matrigel (Corning Life Sciences, Tewksbury, Mass) solution at 1:1. On Day 7, mice were randomized into 4 groups of 10 mice at approximate mean volume (˜212 mm^3). […] Tumor growth inhibition was calculated using the formula (1−(VT/VC))×100, where VT is the tumor volume of the treatment group on the last day of treatment, and Vc is the tumor volume of the control group on the last day of treatment. […] Statistics were determined using One-Way ANOVA.\nBriefly, mice were inoculated in the left flank with 1×10^7LU99 cells re-suspended in a PBS and matrigel (Corning Life Sciences, Tewksbury, Mass) solution at 1:1. […] TGI was calculated using the formula (1−(VT/VC))×100, where VT is the tumor volume of the treatment group on the last day of treatment, and VC is the tumor volume of the control group on the last day of treatment. […]"}, "[2]": {"test_system": "SW-837", "assay": "5-day Cell Titer Glo combination matrix, Bliss score", "format": "cell-based", "settings": "SW837 (CRC, Epithelial); FGFR inhibitor in combination with MRTX849; 5 days", "experimental": "Cells were seeded in RPMI medium with 10% HI FBS at a density of 500 cells/well in Greiner, white, clear bottom, 384-well tissue culture treated plates containing 10×10 combination matrices of compound. Plates were incubated at 37° C., 5% CO2 for 5 days. On day 5, Cell Titer Glo reagent was added to the plates and ATP luminescence was detected using a Pherastar FSX reader. The synergy score for the combination effect was calculated using a Bliss score model where the Bliss score=Yab-(Ya+Yb−(YaYb))×100, where Ya and Yb are the monotherapies. Bliss scores >20 are strongly synergistic and a higher Bliss scores indicates a higher level of synergism.\nCells were seeded in RPMI medium with 10% HI FBS at a density of 500 cells/well in Greiner, white, clear bottom, 384-well tissue culture treated plates containing 10×10 combination matrices of compound. Plates were incubated at 37° C., 5% CO2 for 5 days. On day 5, Cell Titer Glo reagent was added to the plates and ATP luminescence was detected using a Pherastar FSX reader. The synergy score for the combination effect was calculated using a Bliss score model where the Bliss score=Yab−(Ya+Yb−(YaYb))×100, where Ya and Yb are the monotherapies. Bliss scores >20 are strongly synergistic and a higher Bliss scores indicates a higher level of synergism."}}, "data": [{"molecule": "CCN1C(=O)N(c2c(F)c(OC)cc(OC)c2F)Cc2cnc3[nH]c(CN4CCOCC4)cc3c21", "note": "[Pemigatinib, 3-(2,6-difluoro-3,5-dimethoxyphenyl)-1-ethyl-8-(morpholin-4-ylmethyl)-1,3,4,7-tetrahydro-2H-pyrrolo[3′,2′:5,6]pyrido[4,3-d]pyrimidin-2-one]", "values": [{"measurement": "TGI (tumor growth inhibition)", "setting": "[1]", "value": 63, "unit": "%"}, {"measurement": "Avg. Bliss Score", "setting": "[2]", "value": 6.1}]}]}
